Reference: patent US20060035810A1, “Regulation of ins(3456)p4 signalling by a reversible kinase phosphatase and methods and compositions related thereto” (priority 2002, published 2006)

What was measured:
[1] = biological target: T1, Ins(1,3,4,5,6)P5 1-phosphatase activity of Ins(3,4,5,6)P4 kinase (Homo sapiens, UniProt Q13572); experiment: Inositol phosphate phosphatase activity assay with ADP (HPLC); type: biochemical
T1 construct: made in house; host or cells: E. coli
T1 sequence (Q13572 1-414): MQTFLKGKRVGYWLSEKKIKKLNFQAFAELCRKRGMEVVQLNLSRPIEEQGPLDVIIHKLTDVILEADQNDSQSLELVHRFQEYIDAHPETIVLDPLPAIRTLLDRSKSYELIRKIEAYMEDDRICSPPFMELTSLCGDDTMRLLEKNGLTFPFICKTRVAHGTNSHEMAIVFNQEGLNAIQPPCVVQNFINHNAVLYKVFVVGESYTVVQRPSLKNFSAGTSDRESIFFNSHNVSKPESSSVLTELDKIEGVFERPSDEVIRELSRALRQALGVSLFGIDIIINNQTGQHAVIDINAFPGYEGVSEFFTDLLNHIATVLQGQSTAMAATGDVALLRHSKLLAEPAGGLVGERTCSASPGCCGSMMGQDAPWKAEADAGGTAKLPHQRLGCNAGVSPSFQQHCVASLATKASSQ
Protocol: Ins(3,4,5,6)P4 kinase (0.4 μg) was incubated for 30 min in 100 μl phosphatase assay buffer (see Methods) either with (closed circles) or without (open circles) 5 mM ADP plus trace-amounts of either [^3H]Ins(1,3,4,5,6)P5 (panel A) [^3H]Ins(1,3,4,6)P4 (panel B), or [^3H]Ins(1,3,4,5)P4 (panel C). Samples were analyzed by HPLC (see Methods). The elution positions of Ins(1,3,4)P3 and Ins(3,4,5,6)P4 were verified with genuine standards. The elution positions of Ins(1,3,4,6)P4 (106 min, panel B) and of Ins(1,3,4,5)P4 (110 min, panel C) exclude these as products of InsP5 dephosphorylation (panel A).
Additional incubations were performed with 5 μM [^3H]Ins(1,3,4)P3 (approx. 1200 d.p.m.) plus either no Ins(1,3,4,5,6)P5 (open circles) or 5 μM non-radiolabeled Ins(1,3,4,5,6)P5 (closed circles); these reactions were assayed by HPLC (Synchropak Q100 column) and the InsP4 region of the chromatogram is shown in Panel B.
Inositol phosphate phosphatase activity was assayed in buffer containing 100 mM KCl, 20 mM HEPES pH 7.2, 5 mM ADP, 6 mM MgSO4, 0.3 mg/ml bovine serum albumin. Assays were acid-quenched, neutralized and analyzed by HPLC using a Synchropak Q100 columm (Caffrey et al., “Expanding Coincident Signaling by PTEN through its Inositol 1,3,4,5,6-Pentakisphosphate 3-phosphatase Activity,” FEBS Lett 499: 6-10 (2001)); 1 ml fractions were collected for 70 min., followed by 0.5 ml fractions. Inositol phosphate kinase activity was assayed in buffer containing 100 mM KCl, 20 mM HEPES pH 7.2, 5 mM ATP, 10 mM phosphocreatine, 6 mM MgSO4, 10 μg/ml creatine phosphokinase (Calbiochem), 0.3 mg/ml bovine serum albumin. Some assays were acid-quenched and analyzed by HPLC using a Synchropak Q100 column. Other reactions were heat-inactivated (95° C., 3 min) and analyzed by a metal dye detection, HPLC method (Mayr, “A novel metal-dye detection sysytem permits picomolar-range h.p.l.c. analysis of inositol polyphosphates from non-radioactively labelled cell or tissue specimens,” Biochem J 254: 585-591 (1988); Adelt et al., “Enzyme-assisted total synthesis of the optical antipodes D-myo-inositol 3,4,5-trisphosphate and D-myo-inositol 1,5,6-trisphosphate: aspects of their structure-activity relationship to biologically active inositol phosphates,” J Med Chem 42: 1262-1273 (1999)).

[2] = test system: calcium-activated Cl− channels; experiment: Whole-cell Cl− current in CFPAC-1 cells (bio-assay for Ins(3,4,5,6)P4); type: cell-based, human; details: 10 μM in CFPAC-1 cells; control 54±3 pA/pF; +40 mV, free [Ca2+] 0.5 μM
Protocol: T84 cells were detached by incubation with 0.25% (w/v) trypsin/0.02% (w/v) EDTA for 5-6 min. After trypsin removal, 200 μl aliquots (1.5×10^6/ml) were seeded into the circular wells (area=0.45 cm^2) of permeable supports, made by gluing (Silastic® sealant, Dow Corning, Midland, Mich.) a Sylgard® ring to filters composed of mixed cellulose esters (Millipore Corp., Bedford, Mass.). Seeded supports were floated on culture medium and incubated for 11-14 days before being mounted in modified Snapwell holders in Using chambers (EasyMount System, Physiologics Instruments, San Diego, Calif.). Transcellular Cl^− flux was then recorded as the short-circuit current as previously described. The resistance of the monolayers were (vector) 346±44 ohms/cm^2 (mean±se, n=12) and (kinase) 354±62 ohms/cm^2 (mean±se, n=12). Whole-cell Cl^− currents in CFPAC—I cells were measured at +40 mV as previously described using an intracellular Ca^2+-BAPTA buffer to clamp free [Ca^2+] to 0.5 μM [8]. One possibility is that Ins(3,4,5,6)P4 originates by phosphorylation of an InsP3 precursor. […] Control whole-cell Cl^− current (54±3 pA/pF, n—17) was reduced to 24±3 pA/pF (n=7) by 10 μM Ins(3,4,5,6)P4.

[3] = test system: calcium-activated Cl− channels; details: read-out: sensitivity of calcium-activated Cl− channels to Ins(3,4,5,6)P4 (IC50); cited from earlier work

## O=P(O)(O)OC1[C@@H](OP(=O)(O)O)[C@H](OP(=O)(O)O)C(O)[C@H](OP(=O)(O)O)[C@H]1OP(=O)(O)O (stereo partly shown) [Ins(1,3,4,5,6)P5, inositol 1,3,4,5,6-pentakisphosphate]
[1]; 5 mM ADP, trace amounts of substrate
  product of ADP-dependent dephosphorylation: dephosphorylated to an [^3H]InsP4 peak co-eluting upon HPLC with a standard of Ins(3,4,5,6)P4
[1]; with Ins(1,3,4)P3 present
  Vmax for dephosphorylation: 82 pmol/μg protein/min

## O=P(O)(O)OC1C(O)C(O)C(OP(=O)(O)O)C(OP(=O)(O)O)C1OP(=O)(O)O (stereo not shown) [Ins(3,4,5,6)P4, inositol 3,4,5,6-tetrakisphosphate]
[2]
  whole-cell Cl− current: 24±3 pA/pF
[3]
  IC50: 3000 nM
